For 8 compounds, Ki results are on record in patent US20030232986A1, “Inhibitors of caspases” (Vertex Pharmaceuticals Incorporated, priority 1998, published 2003).

For experiment [1], the target named is Caspase-8 (Homo sapiens, UniProt Q14790). Description: Caspase-8 enzyme inhibition (Ki). Particulars: substrate Ac-DEVD-pNA 80 μM, 37° C. The format is biochemical. The procedure:
(§1) Ki values for test compounds with the various caspases were obtained by the method of Margolin et al. (J. Biol. Chem., 272 pp. 7223-7228 (1997)). Assays were performed in 10 mM Tris (Sigma Corp, St Louis Mo.) pH 7.5, 1 mM Dithiothreitol (DTT, Research Organic INC, Cleveland, Ohio) and 0.1% CHAPS (Pierce, Rockford Ill.) at 37° C. For caspase-3, a solution of 8% glycerol was added to the assay buffer to improve enzyme stability. A 65 μL aliquot of the assay buffer and 5 μL aliquot of the appropriate dilutions of inhibitor in DMSO where pipetted into a 96 well plate, treated with 10 μL of caspase, then diluted in assay buffer (0.5-40 nM active protein by active site titration). A control containing DMSO but no compound was included for each determination. The plates were then incubated for 15 minutes at 37° C., before addition of the appropriate substrate (20 μL, final concentration 1-4×KM, final assay volume 100 μL) to initiate the reaction. Reaction rates were measured at 37° C. either by following the time dependant increase in absorbance at 405 nm (for the pNA substrates) or in fluorescence (Ex 390, Em 460) (for the AMC substrates). The rates obtained were plotted against inhibitor concentration and the data fit to the Morrison tight-binding equation for competitive inhibitors (Morrison, J. F., Biochem. Biophys. Acta, 185 pp. 269-286 (1969)). The substrates used for the individual assays were as follows:
Caspase-8 Ac-DEVD-pNA (Bachem, King of Prussia, Pa.) (final concentration in assay 80 μM).

Experiment [2] deals with T1, Caspase-4 (Homo sapiens, UniProt P49662).
T1 sequence (P49662 81-270 limits assumed): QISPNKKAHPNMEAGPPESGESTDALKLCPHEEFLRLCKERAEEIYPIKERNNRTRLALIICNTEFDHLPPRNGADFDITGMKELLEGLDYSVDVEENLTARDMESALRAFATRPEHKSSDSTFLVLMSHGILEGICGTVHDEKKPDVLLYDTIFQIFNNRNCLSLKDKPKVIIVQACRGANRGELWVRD
T1 sequence (P49662 290-377 limits assumed): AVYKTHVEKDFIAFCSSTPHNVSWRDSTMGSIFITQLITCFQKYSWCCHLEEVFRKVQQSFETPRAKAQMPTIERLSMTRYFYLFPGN
Description: Caspase-4 enzyme inhibition (Ki). Particulars: substrate Ac-WEHD-AMC 20 μM, 37° C. The format is biochemical. The procedure:
as §1, with “The substrates used for the individual assays were as follows:” left out

SMILES strings stand for the structures. Some results are limits rather than exact numbers.

By Ki is commonly meant the dissociation constant of the complex between target and ligand, obtained from inhibition or displacement.

Sequence of Caspase-8 (Q14790 217-374 limits assumed): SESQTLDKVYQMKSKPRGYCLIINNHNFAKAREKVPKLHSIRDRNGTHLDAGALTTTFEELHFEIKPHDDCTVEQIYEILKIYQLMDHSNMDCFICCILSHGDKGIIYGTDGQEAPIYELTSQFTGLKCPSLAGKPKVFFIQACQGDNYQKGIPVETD
Sequence of Caspase-8 (Q14790 385-479 limits assumed): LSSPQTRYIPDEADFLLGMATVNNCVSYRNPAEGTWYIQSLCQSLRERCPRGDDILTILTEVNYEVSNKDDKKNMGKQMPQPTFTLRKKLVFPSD

Take `Cc1cc(C(=O)N[C@@H](C)C(=O)N2CCC[C@H]2C(=O)N[C@H](C=O)CC(=O)O)cc(C)c1O` [Example 7c]: the Ki in experiment [1] is greater than 1000 nM.

Turning to `C[C@H](NC(=O)c1nccc2ccccc12)C(=O)N1CCC[C@H]1C(=O)N[C@H](C=O)CC(=O)O` [Example 7d], the Ki in experiment [1] lay within 10 to 1000 nM.

As to `COc1ccc(C(=O)N[C@@H](C)C(=O)N2CCC[C@H]2C(=O)N[C@H](C=O)CC(=O)O)cc1` [Example 7f], the Ki in experiment [1] was greater than 1000 nM.

Turning to `COc1ccc(C(=O)NC(C(=O)N2CCCC2C(=O)NC(C=O)CC(=O)O)C(C)(C)C)cc1` (stereo not shown) [Example 69, 3-({1-[2-(4-Methoxy-benzoylamino)-3,3-dimethyl-butyryl]-pyrrolidine-2-carbonyl}-amino)-4-oxo-butyric acid], the Ki in experiment [1] lay within 10 to 1000 nM.

With `C[C@H](NC(=O)c1ccc(N)c(Cl)c1)C(=O)N1CCC[C@H]1C(=O)N[C@H](C=O)CC(=O)O` [Example 122b, 3-({-[2-(4-Amino-3-chloro-benzoylamino)-propionyl]-pyrrolidine-2-carbonyl}-amino)-4-oxo-butyric acid], the Ki in experiment [1] was 10 to 1000 nM; in experiment [2] it was less than 10 nM.

As for `COc1c(C)cc(C(=O)N[C@@H](C)C(=O)N2CCC[C@H]2C(=O)N[C@H](C=O)CC(=O)O)cc1C` [Example 122d, 3-({1-[2-(4-Methoxy-3,5-dimethyl-benzoylamino)-propionyl]-pyrrolidine-2-carbonyl}-amino)-4-oxo-butyric acid], the Ki in experiment [1] was greater than 1000 nM; in experiment [2], less than 10 nM.

With `CC(=O)Nc1ccc(C(=O)N[C@@H](C)C(=O)N2CCC[C@H]2C(=O)N[C@H](C=O)CC(=O)O)cc1Cl` [Example 122f, 3-({1-[2-(4-Acetylamino-3-chloro-benzoylamino)-propionyl]-pyrrolidine-2-carbonyl}-amino)-4-oxo-butyric acid], the Ki in experiment [1] lay in the range of 10 to 1000 nM.

In experiment [1], `C[C@H](NC(=O)c1cc(Cl)c(O)c(Cl)c1)C(=O)N1CCC[C@H]1C(=O)N[C@H](C=O)CC(=O)O` [Example 122k, 3-({1-[2-(3,5-Dichloro-4-hydroxy-benzoylamino)-propionyl]-pyrrolidine-2-carbonyl}-amino)-4-oxo-butyric acid] had a Ki of 10 to 1000 nM.
